According to patent publication US12398147B2, “Macrocyclic spiropyrrolidine derived antiviral agents” (Enanta Pharmaceuticals, Inc., priority 2021, dated 2025):
Read-outs that look alike come from different tables or passages of the source.

Assays:
SARS-CoV-2 3CL-protease = SARS-CoV-2 3CL-protease (Severe acute respiratory syndrome coronavirus 2 (2019-nCoV) (SARS-CoV-2), UniProt P0DTD1); assay: biochemical
SARS-CoV-2 USA-WA1/2020 = assay: SARS-CoV-2 Cellular Assay (Vero 76), inhibition of CPE, neutral red; type: cell-based; settings: Severe acute respiratory syndrome coronavirus 2, 144 h; Vero 76 cells infected with SARS-CoV-2 USA-WA1/2020, day 6, neutral red CPE
in vitro = settings: African green monkey
[1] = tested on: 229E human corona virus (hCoV); assay: 229E Cellular Assay (MRC5), live virus assay, ATPlite; type: cell-based, hCoV-229E; settings: read-out: EC50 (229E)
[2] = recombinant SARS-CoV-2 3CL-protease 10 nM, 30 min preincubation, read-out: FRET IC50
[3] = Human coronavirus 229E, MRC5, 144 h, MRC-5 cells, hCoV-229E MOI 0.05, 6 days, ATPlite

SMILES	IC50 (SARS-CoV-2 3CL-protease; [2])	EC50 [1, 3]	other results
N#C[C@@H]1C[C@]23CN1C(=O)[C@H](Cc1ccccc1)N(C(=O)c1cn(-c4ccc(F)cc4)nn1)CCCCCc1ccc(c2c1)NC3=O [Example 10]	< 100 nM		EC50 (SARS-CoV-2 USA-WA1/2020): < 1000 nM; CC50 (in vitro): 1000 to 50000 nM
CCCC[C@H]1C(=O)N2C[C@]3(C[C@H]2C#N)C(=O)Nc2ccc(cc23)CCCCCN1C(=O)c1cn(-c2cc(F)c(F)cc2F)nn1 [Example 16]	< 100 nM	< 100 nM	
CC(C)C[C@H]1C(=O)N2C[C@]3(C[C@H]2C#N)C(=O)Nc2ccc(cc23)C=CCCCN1C(=O)OCc1ccccc1 [Example 1]	< 100 nM		EC50 ([1]; MRC-5 cells, hCoV-229E MOI 0.05, 6 days, ATPlite): 100 to 1000 nM
CC(C)C[C@H]1C(=O)N2C[C@]3(C[C@H]2C#N)C(=O)Nc2ccc(cc23)CCCCCN1C(=O)c1cn(C2CCC2)nn1 [Example 12]	< 100 nM	< 100 nM	
CC(C)C[C@H]1C(=O)N2C[C@]3(C[C@H]2C#N)C(=O)Nc2ccc(cc23)CCCCCN1C(=O)c1cc2c(F)cc(F)cc2[nH]1 [Example 4]	< 100 nM	< 100 nM	EC50 (SARS-CoV-2 USA-WA1/2020): < 1000 nM; CC50 (in vitro): 1000 to 50000 nM
CC(C)C[C@H]1C(=O)N2C[C@]3(C[C@H]2C#N)C(=O)Nc2ccc(cc23)CCCCCN1C(=O)c1cnn(-c2ccc(C(F)(F)F)cc2)c1 [Example 18]	< 100 nM	< 100 nM	
CC(C)C[C@H]1C(=O)N2C[C@]3(C[C@H]2C#N)C(=O)Nc2ccc(cc23)CCCCCN1C(=O)c1nnc(-c2ccccc2)[nH]1 [Example 13]		100 to 1000 nM	IC50 (SARS-CoV-2 3CL-protease): 100 to 1000 nM
CC(C)(C)C[C@H]1C(=O)N2C[C@]3(C[C@H]2C#N)C(=O)Nc2ccc(cc23)CCCCCN1C(=O)c1cc2c(F)cc(F)cc2[nH]1 [Example 20]	< 100 nM	< 100 nM	
CC(C)C[C@H]1C(=O)N2C[C@]3(C[C@H]2C#N)C(=O)Nc2ccc(cc23)C(O)CCCCN1C(=O)c1cc2c(F)cc(F)cc2[nH]1 (stereo partly shown) [Example 26]	< 100 nM	< 100 nM	
CC(C)C[C@H]1C(=O)N2C[C@]3(C[C@H]2C#N)C(=O)Nc2ccc(cc23)CCCCCN1C(=O)OCc1ccccc1 [Example 2]	< 100 nM	100 to 1000 nM	
CC(C)C[C@H]1C(=O)N2C[C@]3(C[C@H]2C#N)C(=O)Nc2ccc(cc23)/C=C\CCN1C(=O)OCc1ccccc1 [Example 3]	< 100 nM		EC50 ([1]; Human coronavirus 229E, MRC5, 144 h): 100 to 1000 nM
CC(C)C[C@H]1C(=O)N2C[C@]3(C[C@H]2C#N)C(=O)Nc2ccc(cc23)CCCCCN1C(=O)c1cn(-c2ccccc2)nn1 [Example 7]	< 100 nM	< 100 nM	EC50 (SARS-CoV-2 USA-WA1/2020): < 1000 nM; CC50 (in vitro): 1000 to 50000 nM
CC(C)C[C@H]1C(=O)N2C[C@]3(C[C@H]2C#N)C(=O)Nc2ccc(cc23)CCCCCN1C(=O)c1cc2ccc(C(F)(F)F)cc2[nH]1 [Example 6]	100 to 1000 nM	< 100 nM	
CC(C)C[C@H]1C(=O)N2C[C@]3(C[C@H]2C#N)C(=O)Nc2ccc(cc23)CCCCCN1C(=O)c1cnn(-c2ccc(Cl)cc2Cl)c1 [Example 25]	< 100 nM		
CC(C)C[C@H]1C(=O)N2C[C@]3(C[C@H]2C#N)C(=O)Nc2ccc(cc23)CCCCCN1C(=O)c1cnn(-c2ccccc2Cl)c1 [Example 22]	< 100 nM	< 100 nM	
CC(C)C[C@H]1C(=O)N2C[C@]3(C[C@H]2C#N)C(=O)Nc2ccc(cc23)CCCCCN1C(=O)c1cnn(C(C)(C)C)c1 [Example 17]	< 100 nM	< 100 nM	
CC(C)C[C@H]1C(=O)N2C[C@]3(C[C@H]2C#N)C(=O)Nc2ccc(cc23)C(=O)CCCCN1C(=O)c1cc2c(F)cc(F)cc2[nH]1 [Example 27]	< 100 nM	< 100 nM	
CC(C)C[C@H]1C(=O)N2C[C@]3(C[C@H]2C#N)C(=O)Nc2ccc(cc23)OCCCCN1C(=O)c1cc2c(F)cc(F)cc2[nH]1 [Example 28]	< 100 nM	< 100 nM	
CC(C)C[C@H]1C(=O)N2C[C@]3(C[C@H]2C#N)C(=O)Nc2ccc(cc23)CCCCCN1C(=O)c1cn(C2CC2)nn1 [Example 14]	< 100 nM	< 100 nM	EC50 (SARS-CoV-2 USA-WA1/2020): < 1000 nM; CC50 (in vitro): 1000 to 50000 nM
CC(C)C[C@H]1C(=O)N2C[C@]3(C[C@H]2C#N)C(=O)Nc2ccc(cc23)CCCCCN1C(=O)c1cnn(-c2ccccc2C(F)(F)F)c1 [Example 21]	< 100 nM	< 100 nM	
CCCC[C@H]1C(=O)N2C[C@]3(C[C@H]2C#N)C(=O)Nc2ccc(cc23)CCCCCN1C(=O)c1cc2c(F)cc(F)c(F)c2[nH]1 [Example 19]	< 100 nM	< 100 nM	
CC(C)C[C@H]1C(=O)N2C[C@]3(C[C@H]2C#N)C(=O)Nc2ccc(cc23)CCCCCN1C(=O)C(=O)NC1(c2ccc(F)cc2F)CC1 [Example 24]	< 100 nM	< 100 nM	
N#C[C@@H]1C[C@]23CN1C(=O)[C@H](Cc1ccccc1)N(C(=O)c1cc4c(F)cc(F)cc4[nH]1)CCCCCc1ccc(c2c1)NC3=O [Example 9]	< 100 nM	< 100 nM	EC50 (SARS-CoV-2 USA-WA1/2020): < 1000 nM; CC50 (in vitro): 1000 to 50000 nM
CC(C)C[C@H]1C(=O)N2C[C@]3(C[C@H]2C#N)C(=O)Nc2ccc(cc23)CCCCCCN1C(=O)c1cc2c(F)cc(F)cc2[nH]1 [Example 8]	100 to 1000 nM	100 to 1000 nM	
CC(C)C[C@H]1C(=O)N2C[C@]3(C[C@H]2C#N)C(=O)Nc2ccc(cc23)CCCCCN1C(=O)c1nnn(-c2ccccc2)n1 [Example 11]	< 100 nM	100 to 1000 nM	
CC(C)C[C@H]1C(=O)N2C[C@]3(C[C@H]2C#N)C(=O)Nc2ccc(cc23)OCCCCN1C(=O)C(=O)NC1(c2ccc(F)cc2F)CC1 [Example 29]	< 100 nM		
CC(C)C[C@H]1C(=O)N2C[C@]3(C[C@H]2C#N)C(=O)Nc2ccc(cc23)CCCCCN1C(=O)c1cnn(-c2ccc(F)cc2F)c1 [Example 23]	< 100 nM	< 100 nM	
CC(C)C[C@H]1C(=O)N2C[C@]3(C[C@H]2C#N)C(=O)Nc2ccc(cc23)CCCCCN1C(=O)c1cc2c(F)cc(F)c(F)c2[nH]1 [Example 5]	< 100 nM	< 100 nM	EC50 (SARS-CoV-2 USA-WA1/2020): < 1000 nM; CC50 (in vitro): 1000 to 50000 nM
CCCC[C@H]1C(=O)N2C[C@]3(C[C@H]2C#N)C(=O)Nc2ccc(cc23)CCCCCN1C(=O)c1cc2c(F)cc(F)cc2[nH]1 [Example 15]	< 100 nM	< 100 nM	
